IC50 and solubility data for eight compounds are collected here from patent US11613527B2, “Enzyme inhibitors” (KalVista Pharmaceuticals Limited, priority 2019, dated 2023).

For orientation: IC50 means the midpoint of a concentration-inhibition curve. Broadly, the solubility is the dissolved amount per volume that the medium holds.

One data set has as its target Human plasma kallikrein (Homo sapiens (Human), UniProt P03952). The experiment in a line: Determination of the IC50 for plasma kallikrein (fluorogenic substrate H-DPro-Phe-Arg-AFC). The format is biochemical. Conditions: class symbols A-D, read-out: IC50 (human PKal). The method, boiled down: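 IC50 values come from initial rates, monitored as the change in absorbance at 410 nm, of residual enzyme activity. Test compound was present at various concentrations with the fluorogenic substrate H-DPro-Phe-Arg-AFC, and the reaction was run at 25° C.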

The target in a further data set is Human FXIa (Homo sapiens (Human), UniProt P03951). Briefly: Determination of the % inhibition for FXIa (fluorogenic substrate Z-Gly-Pro-Arg-AFC; 40 μM or IC50). The class given is biochemical. The method, boiled down:
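Inhibition measured from initial reaction rate, followed as absorbance change at 410 nm, with substrate Z-Gly-Pro-Arg-AFC at 25 °C. Compound tested at a single 40 μM dose for percent inhibition, or across several concentrations to derive IC50 against human FXIa.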

Another data set deals with Human KLK1 (Homo sapiens (Human), UniProt P06870). The experiment in a line: Determination of the IC50 for KLK1 (fluorogenic substrate H-DVal-Leu-Arg-AFC). The class given is biochemical. The method, boiled down: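 Inhibition read as initial rate via optical absorbance change at 410 nm, giving IC50. Reactions combined human KLK1, the substrate H-DVal-Leu-Arg-AFC and varied compound concentrations at 25° C.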

Data set [1] can be described thus: Solubility after 24 hrs in Fasted State Simulated Intestinal Fluid (FaSSIF). The format is physicochemical. Conditions: Fasted State Simulated Intestinal Fluid (FaSSIF), thermodynamic from solid, 24 hrs at 37° C., nominal concentration 1 mg/mL (as free base). As for the experimental part: Selected compounds were further screened for solubility in Fasted State Simulated Intestinal Fluid (FaSSIF).
Approximately 1 mg of test compound is accurately weighed into a 2 mL vial. Volumes of the FaSSIF solution (pre-heated to 37° C.) were added to a vial to give a nominal concentration of 1 mg/mL (as free base). The FaSSIF solution was prepared on the day of use. The samples were vortexed before being placed in a Titramax 1000 shaker for 24 hrs at 37° C. and approximately 500 rpm. The samples were transferred to eppendorf tubes and centrifuged at 15,000 g (r.c.f.) for 10 min at 37° C. and analysed for concentration of test compound by LCMS.

Converted amounts (≈) assume the structure as drawn.

Human plasma kallikrein, sequence (P03952 391-638): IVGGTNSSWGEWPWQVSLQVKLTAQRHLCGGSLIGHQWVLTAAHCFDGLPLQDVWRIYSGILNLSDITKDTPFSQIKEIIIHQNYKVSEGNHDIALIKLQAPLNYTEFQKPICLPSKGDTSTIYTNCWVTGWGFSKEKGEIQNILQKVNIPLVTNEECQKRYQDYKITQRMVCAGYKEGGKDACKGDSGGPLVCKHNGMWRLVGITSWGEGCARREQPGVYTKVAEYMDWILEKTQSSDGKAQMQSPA
Human plasma kallikrein, sequence (P03952 20-390 partner): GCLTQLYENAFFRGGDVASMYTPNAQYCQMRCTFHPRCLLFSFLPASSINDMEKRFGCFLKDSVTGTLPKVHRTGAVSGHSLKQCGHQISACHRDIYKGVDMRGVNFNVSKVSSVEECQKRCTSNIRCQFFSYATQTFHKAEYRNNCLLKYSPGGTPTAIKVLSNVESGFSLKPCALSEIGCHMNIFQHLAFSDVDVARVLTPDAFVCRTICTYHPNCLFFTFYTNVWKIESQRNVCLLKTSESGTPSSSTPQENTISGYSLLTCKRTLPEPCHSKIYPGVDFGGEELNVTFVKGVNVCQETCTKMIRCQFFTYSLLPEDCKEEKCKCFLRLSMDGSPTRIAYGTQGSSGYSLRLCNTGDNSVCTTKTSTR
Human FXIa, sequence (P03951 388-625): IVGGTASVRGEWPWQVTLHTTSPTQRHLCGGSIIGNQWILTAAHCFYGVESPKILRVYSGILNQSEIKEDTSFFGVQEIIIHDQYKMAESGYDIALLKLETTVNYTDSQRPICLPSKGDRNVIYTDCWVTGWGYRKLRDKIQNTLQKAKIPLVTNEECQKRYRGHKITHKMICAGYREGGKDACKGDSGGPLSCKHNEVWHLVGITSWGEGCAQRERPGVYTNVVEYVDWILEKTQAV
Human FXIa, sequence (P03951 19-387 partner): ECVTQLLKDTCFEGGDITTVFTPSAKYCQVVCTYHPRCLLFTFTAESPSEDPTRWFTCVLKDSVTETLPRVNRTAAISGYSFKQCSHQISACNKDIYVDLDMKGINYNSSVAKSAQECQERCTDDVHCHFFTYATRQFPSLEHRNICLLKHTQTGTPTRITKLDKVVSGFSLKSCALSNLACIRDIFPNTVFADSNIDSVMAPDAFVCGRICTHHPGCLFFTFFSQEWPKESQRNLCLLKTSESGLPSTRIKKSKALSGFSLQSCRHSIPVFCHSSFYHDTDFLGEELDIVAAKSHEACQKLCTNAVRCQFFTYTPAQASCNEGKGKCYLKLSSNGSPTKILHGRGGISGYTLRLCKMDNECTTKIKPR
Human KLK1, sequence (P06870 25-262): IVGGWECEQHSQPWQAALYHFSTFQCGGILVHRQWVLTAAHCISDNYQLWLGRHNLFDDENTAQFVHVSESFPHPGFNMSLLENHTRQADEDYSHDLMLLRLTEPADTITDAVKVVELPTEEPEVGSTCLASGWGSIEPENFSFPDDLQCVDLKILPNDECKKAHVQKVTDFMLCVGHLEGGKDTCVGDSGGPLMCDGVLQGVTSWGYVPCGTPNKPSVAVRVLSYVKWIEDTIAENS

Consider `COc1ccc(-n2cc(C)nn2)c(CNC(=O)c2cn(Cc3ccc4c(c3)CN(C(C)C)C4)nn2)c1F` [Example 153, N-{[2-fluoro-3-methoxy-6-(4-methyl-1,2,3-triazol-1-yl)phenyl]methyl}-1-[(2-isopropyl-1,3-dihydroisoindol-5-yl)methyl]-1,2,3-triazole-4-carboxamide], for which the IC50 at Human plasma kallikrein is less than 10 nM; against Human FXIa, more than 40 µM; against Human KLK1, more than 40 µM. The compound further returned a solubility at 24 h in data set [1] of 950 µg/mL (≈ 1880 µM).

On to `COCc1nn(Cc2ccc3nc(C)ccc3c2)cc1C(=O)NCc1c(-n2cnnn2)ccc(OC)c1F` [RC2, N-{[2-fluoro-3-methoxy-6-(1,2,3,4-tetrazol-1-yl)phenyl]methyl}-3-(methoxymethyl)-1-[(2-methylquinolin-6-yl)methyl]pyrazole-4-carboxamide, reference compound], for which the IC50 on Human plasma kallikrein was less than 10 nM; at Human FXIa, 0.218 µM; on Human KLK1, more than 40 µM. In data set [1], this compound registered a solubility at 24 h of 20 µg/mL (≈ 38.7 µM).

As to `COCc1nn(Cc2ccc3c(c2)CCN(C)C3)cc1C(=O)NCc1c(-n2ccc(C#N)n2)ccc(OC)c1F` [Example 43, N-{[6-(3-cyanopyrazol-1-yl)-2-fluoro-3-methoxyphenyl]methyl}-3-(methoxymethyl)-1-[(2-methyl-3,4-dihydro-1H-isoquinolin-6-yl)methyl]pyrazole-4-carboxamide], the IC50 is less than 10 nM at Human plasma kallikrein, 31.8 µM against Human FXIa and more than 40 µM at Human KLK1. Moreover, in data set [1], the solubility at 24 h was 800 µg/mL (≈ 1470 µM).

`COc1ccc(-n2cc(C)nn2)c(CNC(=O)c2cn(Cc3ccc4c(c3)CN(C)CC4)c(C3CC3)n2)c1F` [Example 149, 2-cyclopropyl-N-{[2-fluoro-3-methoxy-6-(4-methyl-1,2,3-triazol-1-yl)phenyl]methyl}-1-[(2-methyl-3,4-dihydro-1H-isoquinolin-7-yl)methyl]imidazole-4-carboxamide]: the IC50 at Human plasma kallikrein was 10 to 30 nM; on Human FXIa it was more than 40 µM; on Human KLK1 it was more than 40 µM. In data set [1], this compound gave a solubility at 24 h of 910 µg/mL (≈ 1720 µM).

For `COc1ccc(-n2cc(C)nn2)c(CNC(=O)c2cn(Cc3ccc4c(c3)CN(C)CC4)c(C)n2)c1F` [Example 151, N-{[2-fluoro-3-methoxy-6-(4-methyl-1,2,3-triazol-1-yl)phenyl]methyl}-2-methyl-1-[(2-methyl-3,4-dihydro-1H-isoquinolin-7-yl)methyl]imidazole-4-carboxamide], the concentration for half-maximal inhibition (IC50) was 10 to 30 nM on Human plasma kallikrein, more than 40 µM at Human FXIa and more than 40 µM at Human KLK1. The solubility at 24 h in data set [1] is 750 µg/mL (≈ 1490 µM).

In the case of `COCc1nn(Cc2cc3c(cc2F)CCN(C)C3)cc1C(=O)NCc1c(-n2cc(C)nn2)ccc(OC)c1F` [Example 118, 1-[(6-fluoro-2-methyl-3,4-dihydro-1H-isoquinolin-7-yl)methyl]-N-{[2-fluoro-3-methoxy-6-(4-methyl-1,2,3-triazol-1-yl)phenyl]methyl}-3-(methoxymethyl)pyrazole-4-carboxamide], the IC50 at Human plasma kallikrein is less than 10 nM; at Human FXIa, 9.9 µM; on Human KLK1 it was more than 40 µM. The same compound came in with a solubility at 24 h in data set [1] of 930 µg/mL (≈ 1690 µM).

In the case of `COCc1nn(Cc2ccc3c(c2)CCN(C)C3)cc1C(=O)NCc1c(-n2cc(C)nn2)ccc(OC)c1F` [Example 36, N-{[2-fluoro-3-methoxy-6-(4-methyl-1,2,3-triazol-1-yl)phenyl]methyl}-3-(methoxymethyl)-1-[(2-methyl-3,4-dihydro-1H-isoquinolin-6-yl)methyl]pyrazole-4-carboxamide], the results for the IC50 at Human plasma kallikrein, on Human FXIa and against Human KLK1 were less than 10 nM, more than 4 µM and more than 4 µM, respectively. The same compound came in with a solubility at 24 h in data set [1] of 880 µg/mL (≈ 1650 µM).

As to `COCc1nn(Cc2cnc(N3CCCC3)nc2)cc1C(=O)NCc1c(-n2cnnn2)ccc(OC)c1F` [RC4, N-{[2-fluoro-3-methoxy-6-(1,2,3,4-tetrazol-1-yl)phenyl]methyl}-3-(methoxymethyl)-1-{[2-(pyrrolidin-1-yl)pyrimidin-5-yl]methyl}pyrazole-4-carboxamide, reference compound], the values for the IC50 at Human plasma kallikrein and against Human KLK1 were less than 10 nM and more than 40 µM, respectively. For the same compound, in data set [1], the solubility at 24 h was 170 µg/mL (≈ 325 µM).
